Measurements taken from patent US20260169011A1, “METHODS AND COMPOSITIONS FOR PROVIDING CUSTOMIZED NUTRITIONAL SUPPLEMENTS” (Vibrant Holdings LLC, priority 2023, published 2026).
Where two headings read alike, the source gives them in different places. One block for each compound: values may come before it.

Experiments:
[1] = Intracellular (RBC / WBC, cellular) nutrient levels by mass spectrometry; format: in vivo, human; details: Level: Cells, person; for Follow-up Nutrient Level: after customized blend; for Actual Nutrient Value (ANV): before customized blend
From the text: (§1) In some embodiments, the detection method is mass spectrometry.

[2] = NutriPro test: serum, RBC and WBC nutrient values before and after ATB / customized blend; format: in vivo, human; details: for Pre-test biomarker level: before ATB; for Follow-up Nutrient Level / Actual Nutrient Value (ANV): person three; for Actual Nutrient Value (ANV): before customized blend
From the text: The method for providing a nutritional supplement for a subject as disclosed herein is based on a comprehensive panel that assesses intracellular and extracellular levels of at least or up to 41 nutrients. […] Blood analysis using the method disclosed herein tests for nutrient levels in serum, red blood cells (RBCs), and white blood cells (WBCs). Additional genetic testing can assess patients' predispositions toward nutrient deficiencies. Based on the blood and genetic analysis results, a subsequent supplementation diet comprising supplements and food sources can be designed and implemented. The subject can be a human subject.
as §1
The ‘NutriPro’ test is used to assess serum (extracellular), RBC, and WBC (intracellular) nutrient values along with genetic testing for any predispositions with could be affecting nutrient values in the body. If required, additional tests such as the gut zoomer, cardiovascular health, thyroid test, kidney function test, liver function test, etc, are carried out. FIG. 1 provides a schematic diagram of the process of the NutriPro test from the individual subject to the creation of customized nutritional blends.
The ATB is given to the individual for nutritional supplementation, and blood testing for nutrients in serum, RBC, and WBC is carried out after 3 or 6 months.
The assessed change is called the VAF.
After testing, the individual takes the ATB or the customized blend for the amount of time indicated.

[3] = cited from earlier work
[4] = Extracellular (serum) nutrient levels by mass spectrometry (LC-MS, GC-MS, ICP-MS); details: for Follow-up Nutrient Level / Actual Nutrient Value (ANV): Level: Serum, person; for Follow-up Nutrient Level: after customized blend; for Actual Nutrient Value (ANV): before customized blend
From the text: In some embodiments, the detection method assesses nutrients both in extracellular plasma and intracellular in RBC and WBC. In some embodiments, the detection method is mass spectroscopy-based. The extracellular and intracellular nutrient levels provide a comprehensive analysis of a subject's nutrient status, reflecting not only the intake levels but also the absorption levels into the cells.
In some aspects, the extracellular nutrient levels provide a snapshot of the status of nutrient baseline levels at a given time. It is a reflection of a person's diet over a narrow period of time. In contrast, the intracellular levels of nutrients provide information on the absorbed levels of nutrients, thus accounting for factors such as aging, lifestyle, chronic illness, medication, etc. that could interfere with absorption and can change the functional nutritional levels.
In some embodiments, the detection method is mass spectrometry. In some embodiments, the detection method is Liquid chromatography-mass spectrometry (LC-MS), Gas chromatography-mass spectrometry (GC-MS), or Inductively coupled plasma-mass-spectrometry (ICP-MS). In some embodiments, the detection method is Liquid chromatography-mass spectrometry (LC-MS). In some embodiments, the detection method is Gas chromatography-mass spectrometry (GC-MS). In some embodiments, the detection method is Inductively coupled plasma-mass-spectrometry (ICP-MS).
In some embodiments, the method provided herein evaluates nutrient levels, both in extracellular serum and inside (intracellular) red blood cells (RBC) and/or white blood cells (WBC). The extracellular nutrient levels provide a snapshot of the status of nutrient baseline levels at a given time. These extracellular nutrient levels are a reflection of a person's diet over a narrow period of time. In contrast, RBCs have a normal lifespan of 120 days, and thus intracellular assessments for nutrients in RBCs can provide information on nutrients over longer periods. Additionally, the intracellular levels of nutrients provide information on the absorbed levels of nutrients, thus accounting for factors such as, but not limited to, aging, lifestyle, chronic illness, and medication, that can interfere with absorption and can change the functional nutritional levels. Moreover, actual nutrient utilization occurs inside the cell owing to cellular metabolic processes. At times, nutrients could be present in serum, but poor cellular uptake may result in cells being devoid of these nutrients, thus giving rise to nutrient deficiencies owing to affected cellular activities. […] As a result, it is important to assess nutrients intracellularly in addition to extracellularly. Thus, the intracellular assessment provides information on cellular uptake and utilization of nutrients at the most fundamental level, enabling understanding of the root cause of nutrient deficiencies.
The subject individual fills out the health questionnaire (PHQ) which helps establishes factors such as symptoms, complications, comorbidities, and ongoing medications. The subject's blood is drawn and the extracellular serum and intracellular blood cells are tested for nutritional deficiencies via mass spectroscopy (e.g., Liquid chromatography-mass spectrometry (LC-MS), Gas chromatography-mass spectrometry (GC-MS), or Inductively coupled plasma-mass-spectrometry (ICP-MS)).

[5] = Vibrant Absorption Factor (VAF): difference of post- and pre-supplementation nutrient values divided by ATB dosage
[6] = Zone Approach: nutrient zone (Zone 1-5), target nutrient zone and follow-up zone; format: in vivo, human; details: Example 4: person three bodybuilder, Zone Approach, CB followed for three months; named nutrients are the exceptions that did not reach the TNZ
From the text: The second exemplary approach includes determining nutrient zones, and thus is referred to as the “Zone Approach.” According to some embodiments, the nutrient reference range for individuals can be divided into a number of zones, each indicating a nutrient wellness level. […] In some embodiments, for a given nutrient, each zone is associated with a specific multiplication factor, which can be used to determine the appropriate dosage for the CB. A few exemplary methods following this Zone Approach are further described hereinafter. […] Based on the assessment results, the current zone for each nutrient is determined at step 420a. In some embodiments, the genetic predispositions and cellular levels may influence the determination of the overall zone for a nutrient. […] This adjustment accounts for the impact of genetic polymorphisms and suboptimal cellular levels, each reducing the nutrient's zone by one or more zones. Therefore, this approach takes one or more of cellular and serum nutrient levels, along with their nutrient genetic profile into consideration to determine a given nutrient's overall zone. In the next, the Target Nutrient Zone (TNZ) to which the individual's each nutrient level is to be optimized is determined at step 430. […] In some embodiments, the determined TNZ is used to determine the multiplication factor used to adjust the starting dosage at step 440a, resulting in the CB dosage for each nutrient. In various embodiments, the multiplication factor is a fixed constant value, previously determined for a nutrient when moving from a first zone to a second zone. […] At step 450a, the CB with the determined nutrient dosages is administered to the individual for a predefined period. In some embodiments, a follow-up test is periodically conducted at step 460, to monitor the progress towards the target nutrient levels during the predefined period, for example, to check whether a target zone is reached or not for a given nutrient. In some embodiments, based on the results from the follow-up tests, it is further determined whether the dosage of the CB for a nutrient requires adjustment. If the adjustment is necessary, appropriate modification is made to the CB, for example, by increasing the TNZ to increase the nutrient levels. The modified CB is administered to the individual, and a reassessment is conducted again. In some embodiments, the personalized dosage of the nutritional supplement in the CB is modified as above after the at least one, two, three, four, five, six, seven, eight, nine, ten, or more repeats.

[7] = person one, serum, after customized blend

Structure (SMILES): [Ca] [Calcium]
Follow-up Nutrient Level [1]: 4.2 ng/MM WBC
Actual Nutrient Value (ANV) [1]: 4.2 ng/MM WBC
Post-test biomarker level ([2]; person one, serum, after ATB): 7.3 mg/dL
Follow-up Biomarker level [2, 7]: 10.4 mg/dL
Pre-test biomarker level ([2]; person one, serum): 6.5 mg/dL
Post-test biomarker level ([2]; person two, serum, after ATB): 5.9 mg/dL
Follow-up Biomarker level ([2]; person two, serum, after customized blend): 10.42 mg/dL
Pre-test biomarker level ([2]; person two, serum): 5.4 mg/dL
UTL ([3]; Table 18, person one): 2,500 mg/day
UTL ([3]; Table 19, person two): 2,500 mg/day
UTL ([3]; upper tolerable limit): 2,500 mg/day
Follow-up Nutrient Level [4]: 6.2 mg/dL
Actual Nutrient Value (ANV) [4]: 3.1 mg/dL
VAF ([5]; person one, serum): 0.8
VAF ([5]; person two, serum): 0.5

Structure (SMILES): [Cu] [Copper]
Post-test biomarker level ([2]; person one, serum, after ATB): 0.09 mg/dL
Follow-up Biomarker level [2, 7]: 0.169 mg/dL
Pre-test biomarker level ([2]; person one, serum): 0.02 mg/dL
UTL ([3]; Table 18, person one): 10 mg/day
Follow-up Nutrient Level [4]: 0.05 mg/dL
Actual Nutrient Value (ANV) [4]: 0.01 mg/dL
VAF ([5]; person one, serum): 8.75

Follow-up Nutrient Level ([1]; unit not given): 0.9
Actual Nutrient Value (ANV) ([1]; unit not given): 0.9
Post-test biomarker level ([2]; person two, cells, after ATB, unit not given): 1.9
Follow-up Biomarker level ([2]; person two, cells, after customized blend, unit not given): 9.4
Pre-test biomarker level ([2]; person two, cells, unit not given): 1.2
VAF ([5]; person two, cells): 0.14
Structure (SMILES): CC/C=C\C/C=C\C/C=C\C/C=C\C/C=C\C/C=C\CCC(=O)O [DHA]

Structure (SMILES): CC/C=C\C/C=C\C/C=C\C/C=C\C/C=C\CCCC(=O)O [EPA]
Follow-up Nutrient Level ([1]; unit not given): 0.05
Actual Nutrient Value (ANV) ([1]; unit not given): 0.05
Post-test biomarker level ([2]; person one, cells, after ATB, unit not given): 0.87
Follow-up Biomarker level ([2]; person one, cells, after customized blend, unit not given): 2.1
Pre-test biomarker level ([2]; person one, cells, unit not given): 0.1
VAF ([5]; person one, cells): 0.154

Follow-up Biomarker level ([2]; female, human, in vivo): 0.00145 mg/dL
Post-test biomarker level ([2]; female, human, in vivo): 0.00033 mg/dL
Post-test biomarker level ([2]; person one, serum, after ATB): 0.00028 mg/dL
Follow-up Biomarker level [2, 7]: 0.00143 mg/dL
Pre-test biomarker level ([2]; person one, serum): 0.00012 mg/dL
Pre-test biomarker level ([2]; person two, serum): 9e-05 mg/dL
Actual Nutrient Value (ANV) [4]: 8e-05 mg/dL
concentration at 3 months ([4]; female, human, serum): 1.2 ng/mL
VAF ([5]; person one, serum): 0.032
VAF ([5]; person two, serum): 0.048
Structure (SMILES): Nc1nc2ncc(CNc3ccc(C(=O)N[C@@H](CCC(=O)O)C(=O)O)cc3)nc2c(=O)[nH]1 [Folate]

Structure (SMILES): [Fe] [Iron]
Follow-up Nutrient Level [1]: 76.5 mg/dL
Actual Nutrient Value (ANV) [1]: 76.5 mg/dL
Follow-up Nutrient Level ([2]; cells, after customized blend): 114.1 mg/dL
Actual Nutrient Value (ANV) ([2]; cells): 62 mg/dL
Follow-up Nutrient Level ([2]; serum, after customized blend): 0.141 mg/dL
Actual Nutrient Value (ANV) ([2]; serum): 0.022 mg/dL
UTL ([3]; Table 20, person three): 45 mg/day
Follow-up Nutrient Level [4]: 0.019 mg/dL
Actual Nutrient Value (ANV) [4]: 0.014 mg/dL

Structure (SMILES): N[C@@H](CO)C(=O)O [L-Serine]
UTL ([3]; upper tolerable limit): 12000 mg/day
Follow-up Nutrient Level [4]: 51 nmol/mL
Actual Nutrient Value (ANV) [4]: 44 nmol/mL

Structure (SMILES): CCCCC/C=C\C/C=C\CCCCCCCC(=O)O [LA, linoleic acid]
nutrient levels reaching their TNZ at follow-up testing [6]: supposed to reach the higher Zone 5
